Results reported in patent US10995068B2, “Synthetic sphingolipid-like molecules, drugs, methods of their synthesis and methods of treatment” (The Regents of the University of California, priority 2015, dated 2021).

Experiments:
Format in all cases: cell-based
[1] = test system: mouse prostate cancer epithelial cells (mPCE); assay: LDL receptor, LDL uptake and lipid droplets in mPCE cells
Procedure: To determine the sensitivity, SH-BC-893 was evaluated in a validated genetically-engineered mouse model for invasive castration-resistant prostate cancer that lacks p53 and PTEN expression exclusively in the prostate (pDKO) (Wu X, et al. Am J Clin Exp Urol. 2014; 2(2):111-20; Schwarzenböck S, et al. Theranostics. 2012; 2(3):318-330; Chen Z, et al. Nature. 2005; 436(7051):725-730; the disclosures of which are herein incorporated by reference). […] SH-BC-893, however, still produced a phenotype consistent with starvation as the bound NADH fraction increased and cell permeant nutrients protected mPCE cells from death (FIGS. 65A and 65C). Prostate cancer cells depend on exogenous LDL for growth and survival. […]
(§1) Light Microscopy: Brightfield and epifluorescence microscopy were conducted using a Nikon TE2000-S fluorescence microscope; confocal microscopy was performed on a Zeiss LSM780 confocal microscope or Nikon Eclipse Ti spinning disk confocal microscope. […] Co-localization was determined using JACoP plugin in ImageJ software. Macropinocytosis was measured after 16 h incubation in serum-free DMEM. p53−/−; LSL-K-RasG12D MEFs before (LSL) or after (KRasG12D) introduction of Cre were serum starved for 16 h and then treated with macropinocytosis inhibitor 5-(N-ethyl-N-isopropyl) amiloride (EIPA, 75 μM) for 1 h or SH-BC-893 for 6 h. […]

4F2hc, ASCT2, GLUT1 = assay: Nutrient transporter internalization; settings: CD147 not affected
Source text: As a proof of principle concerning the ability of C-aryl azacyclic constrained sphingolipid-like compounds, compound SH-BC-893 was examined thoroughly in a series of exemplary embodiment experiments. (The chemical structure of SH-BC-893, also referred to in the in this application as compound 5 and compound 104, and of FTY720 are shown in FIG. 51A). Results are provided below, along with a number of correlated data tables and graphs (Tables 7 and 8 and FIGS. 51-67). In embodiments, SH-BC-893 induces nutrient transporter loss and mimics starvation without the S1P receptor associated toxicity of FTY720. SH-BC-893 lacks the sphingosine-1-phosphate (S1P) receptor activity that prevents the use of FTY720 in cancer patients (FIG. 51B). […]
as §1

[2] = test system: non-transformed and cancer cells; assay: Cytosolic vacuolation by SH-BC-893; settings: both non-transformed and cancer cells
Source text: Certain embodiments of the invention are directed to azacyclic constrained sphingolipid-like molecules to inhibit macropinocytosis and autophagy, consistent with the bioenergetic mechanism. This aspect of the mechanism was unexpected because it was initially believed in that these molecules would only reduce nutrient transporter surface expression. However, considering that Ras activation increases macropinocytosis and autophagy, and the finding that SH-BC-893 was very effective against neoplastic cells with activated Ras led to the hypothesis that azacyclic constrained sphingolipid-like molecules might also affect macropinocytosis and autophagy pathways. […]
as §1

CCCCCCCCc1ccc([C@H]2CCN[C@@H]2CO)cc1.Cl [Compound 5, (2S,3R)-2-(hydroxymethyl)-3-(4-octylphenyl)Pyrrolidinium chloride]
surface levels of the LDL receptor (LDLr), LDL uptake, and lipid droplet accumulation [1]: dramatically decreased | internalization of amino acid and glucose transporters (4F2hc, ASCT2, GLUT1) (4F2hc, ASCT2, GLUT1): triggers the selective internalization | cytosolic vacuolation [2]: induced equally striking cytosolic vacuolation
